The values that follow come from patent publication US20100286181A1, “PYRROLE DERIVATIVES WITH ANTIBACTERIAL ACTIVITY” (ASTRAZENECA AB, priority 2006, published 2010).

Structures are written as SMILES. Converted amounts (≈) assume the structure as drawn.

For test [1], the target named is GyrB ATPase activity (E. coli GyrA, E. coli GyrB) (Escherichia coli, UniProt P0AES6). As to the kind of experiment: GyrB ATPase inhibition activity assay (ammonium molybdate/malachite green phosphate detection). In kind it is biochemical. The conditions noted are these: figure quoted may be an average of two or more results. The method in brief: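 E. coli GyrA/GyrB (2.5 nM each) with 5 μg/ml sheared DNA and 250 μM ATP in 50 mM HEPES pH 7.5, 5.5 mM MgCl2, 75 mM ammonium acetate. Released phosphate detected with ammonium molybdate/malachite green reagent. IC50 may be an average of two or more results.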

A further test relates to Streptococcus pneumoniae. The test is described as follows: Bacterial susceptibility testing in liquid media (MIC), Streptococcus pneumoniae. In kind it is cell-based. Conditions: against Streptococcus pneumoniae; lowest concentration reducing growth by 80% or more, 37° C., 24 hrs. From the text:
(§1) Compounds may be tested for antimicrobial activity by susceptibility testing in liquid media. Compounds may be dissolved in dimethylsulfoxide and tested in 10 doubling dilutions in the susceptibility assays. The organisms used in the assay may be grown overnight on suitable agar media and then suspended in a liquid medium appropriate for the growth of the organism. The can be was a 0.5 McFarland and a further 1 in 10 dilution can be made into the same liquid medium to prepare the final organism suspension in 100 pt. Plates can be incubated under appropriate conditions at 37° C. for 24 hrs prior to reading. The Minimum Inhibitory Concentration (MIC) may be determined as the lowest drug concentration able to reduce growth by 80% or more.

Another test relates to HIN446. The test is described as follows: Bacterial susceptibility testing in liquid media (MIC), HIN446. In kind it is cell-based. Conditions: strain HIN446.
Description: as §1

The subject of a further test is SPN548. As to the kind of experiment: Bacterial susceptibility testing in liquid media (MIC), SPN548. Conditions: strain SPN548. In kind it is cell-based.
Description: as §1

The test system of the next test is EFM073. As to the kind of experiment: Bacterial susceptibility testing in liquid media (MIC), EFM073. In kind it is cell-based. The conditions noted are these: strain EFM073.
Description: as §1

The test system of a further test is MCA445. As to the kind of experiment: Bacterial susceptibility testing in liquid media (MIC), MCA445. In kind it is cell-based. The conditions noted are these: strain MCA445.
Description: as §1

The subject of a further test is SAU516. The test is described as follows: Bacterial susceptibility testing in liquid media (MIC), SAU516. The conditions noted are these: strain SAU516. In kind it is cell-based.
Description: as §1

The compound `COC(=O)c1cnc(N2CCC(NC(=O)c3[nH]c(C)c(Cl)c3Cl)C3(C2)OCCO3)s1` (stereo not shown) [Example 1, Methyl 2-(10-{[(3,4-dichloro-5-methyl-1H-pyrrol-2-yl)carbonyl]amino}-1,4-dioxa-7-azaspiro[4.5]dec-7-yl)-1,3-thiazole-5-carboxylate] came in with an IC50 in test [1] of 463 nM. In the test with Streptococcus pneumoniae, this compound yielded an MIC of 1 µg/mL (≈ 2.1 µM).

In the test with HIN446, `CNC(=O)c1nc(N2CCC(NC(=O)c3[nH]c(C)c(Cl)c3Cl)C3(C2)OCCCO3)sc1C(=O)O` (stereo not shown) [Example 18, 2-(11-{[(3,4-Dichloro-5-methyl-1H-pyrrol-2-yl)carbonyl]amino}-1,5-dioxa-8-azaspiro[5.5]undec-8-yl)-4-[(methylamino)carbonyl]-1,3-thiazole-5-carboxylic acid] displayed an MIC HIN446 of 0.5 µg/mL (≈ 0.939 µM). In addition, the MIC SPN548 against SPN548 is < 0.063 µg/mL. This compound also came in with an MIC EFM073 with EFM073 of 0.25 µg/mL (≈ 0.47 µM). In the test on MCA445, the MIC MCA445 was < 0.063 µg/mL. Moreover, the IC50 in test [1] is < 9.77 nM. Besides, the MIC SAU516 against SAU516 worked out at 0.25 µg/mL (≈ 0.47 µM).

For `COC1(OC)CN(c2ncc(C(=O)O)s2)CCC1NC(=O)c1[nH]c(C)c(Cl)c1Cl` (stereo not shown) [Example 20, 2-(4-{[(3,4-Dichloro-5-methyl-1H-pyrrol-2-yl)carbonyl]amino}-3,3-dimethoxypiperidin-1-yl)-1,3-thiazole-5-carboxylic acid], in the test on HIN446, the MIC HIN446 was 1 µg/mL (≈ 2.16 µM). The same compound displayed an MIC SPN548 in the test with SPN548 of 0.13 µg/mL (≈ 0.281 µM). The same compound showed an MIC EFM073 with EFM073 of 2 µg/mL (≈ 4.32 µM). The compound also showed an MIC MCA445 with MCA445 of 0.5 µg/mL (≈ 1.08 µM). Further, in test [1], the IC50 was < 67.1 nM. In the test on SAU516, this compound yielded an MIC SAU516 of 2 µg/mL (≈ 4.32 µM).

In the test with HIN446, `Cc1[nH]c(C(=O)NC2CCN(c3ncc(C(=O)O)s3)CC23OCCCO3)c(Cl)c1Cl` (stereo not shown) [Example 16, 2-(11-{[(3,4-Dichloro-5-methyl-1H-pyrrol-2-yl)carbonyl]amino}-1,5-dioxa-8-azaspiro[5.5]undec-8-yl)-1,3-thiazole-5-carboxylic acid] displayed an MIC HIN446 of 1 µg/mL (≈ 2.1 µM). In addition, the MIC SPN548 against SPN548 is < 0.063 µg/mL. Further, in the test with EFM073, the MIC EFM073 was 1 µg/mL (≈ 2.1 µM). In the test with MCA445, this compound registered an MIC MCA445 of 0.13 µg/mL (≈ 0.273 µM). The IC50 in test [1] is < 9.77 nM. In the test with SAU516, this compound had an MIC SAU516 of 2 µg/mL (≈ 4.21 µM).

`COC(=O)c1cnc(N2CC[C@H](NC(=O)c3[nH]c(C)c(Cl)c3Cl)[C@H](n3ccnc3)C2)s1` (racemic) [Example 38, cis(±)Methyl 2-[4-{[(3,4-dichloro-5-methyl-1H-pyrrol-2-yl)carbonyl]amino}-3-(1H-imidazol-1-yl)piperidin-1-yl]-1,3-thiazole-5-carboxylate]: in test [1], the IC50 came to 90.9 nM.

In the case of `COCC(COC)NC(=O)c1nc(N2CC[C@@H](NC(=O)c3[nH]c(C)c(Cl)c3Cl)[C@@H](n3cc(CF)nn3)C2)sc1C(=O)O` [Example 112], the IC50 in test [1] is < 9.77 nM.

On to `C=C1COC2(CN(c3ncc(C(=O)O)s3)CCC2NC(=O)c2[nH]c(C)c(Cl)c2Cl)OC1` (stereo not shown) [Example 56, 2-(11-{[(3,4-Dichloro-5-methyl-1H-pyrrol-2-yl)carbonyl]amino}-3-methylene-1,5-dioxa-8-azaspiro[5.5]undec-8-yl)-1,3-thiazole-5-carboxylic acid], for which the IC50 in test [1] is < 9.77 nM.

For the compound `COCCNC(=O)c1nc(N2CCC(NC(=O)c3[nH]c(C)c(Cl)c3Cl)C3(C2)OCCCO3)sc1C(=O)O` (stereo not shown) [Example 17, 2-(11-{[(3,4-Dichloro-5-methyl-1H-pyrrol-2-yl)carbonyl]amino}-1,5-dioxa-8-azaspiro[5.5]undec-8-yl)-4-{[(2-methoxyethyl)amino]carbonyl}-1,3-thiazole-5-carboxylic acid], the IC50 in test [1] is < 9.77 nM.

On to `COCCn1ccnc1-c1nc(N2CCC(NC(=O)c3[nH]c(C)c(Cl)c3Cl)/C(=N/OC)C2)sc1C(=O)OC` (stereo not shown) [Example 36, Methyl 2-[(3E)-4-{[(3,4-dichloro-5-methyl-1H-pyrrol-2-yl)carbonyl]amino}-3-(methoxyimino)piperidin-1-yl]-4-[1-(2-methoxyethyl)-1H-imidazol-2-yl]-1,3-thiazole-5-carboxylate], for which, in test [1], the IC50 was 75.5 nM.
